According to PubChem BioAssay AID1963833 (Molecular Pharmacology Branch, DTP, NCI, 2024):

Test system: 883617-216-R-J1-PDC complex spheroid viability
Assay: Anticancer human tumor 883617-216-R-J1-PDC patient-derived bladder carcinoma cell line growth inhibition [POLQ]
Conditions: for IC50: curve of first compound; for viability, T/C: stronger effect = lower value; active means viability on the fitted dose curve at most 10% of control; inactive means the rest
How it was run: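 Growth inhibition in 3D: complex spheroids (tumor PDC, HUVEC, MSC) treated with POLQ inhibitor combinations; where Cmax unknown, highest tested concentration 10 microM, except SN-38 at 1 microM.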
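Further: spheroids exposed to compounds for seven days before readout.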
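Wherever viability, T/C is given: 100% = DMSO vehicle control viability.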

CC[C@@]1(O)C(=O)OCc2c1cc1n(c2=O)Cc2cc3c(CN(C)C)c(O)ccc3nc2-1 + Cc1cccc(N(C)C(=O)C2C(O)CCN2c2nc(C)cc(C(F)(F)F)c2C#N)c1
> 100 nM: IC50 (second compound 0.0316 µM) | IC50 (second compound 0.1 µM) | IC50 (second compound 0.316 µM) | IC50 (second compound 1 µM) | IC50 (second compound 3.16 µM) | IC50 (second compound 10 µM)
inactive: viability, T/C (second compound 0.0316 µM, first compound 0.000316 µM) 96.3% | viability, T/C (second compound 0.0316 µM, first compound 0.001 µM) 85.8% | viability, T/C (second compound 0.0316 µM, first compound 0.00316 µM) 96.1% | viability, T/C (second compound 0.0316 µM, first compound 0.01 µM) 79.3% | viability, T/C (second compound 0.0316 µM, first compound 0.0316 µM) 57.5% | viability, T/C (second compound 0.0316 µM, first compound 0.1 µM) 54.1% | viability, T/C (second compound 0.1 µM, first compound 0.000316 µM) 101% | viability, T/C (second compound 0.1 µM, first compound 0.001 µM) 93.3% | viability, T/C (second compound 0.1 µM, first compound 0.00316 µM) 83.7% | viability, T/C (second compound 0.1 µM, first compound 0.01 µM) 81.5% | viability, T/C (second compound 0.1 µM, first compound 0.0316 µM) 58% | viability, T/C (second compound 0.1 µM, first compound 0.1 µM) 61.4% | viability, T/C (second compound 0.316 µM, first compound 0.000316 µM) 102% | viability, T/C (second compound 0.316 µM, first compound 0.001 µM) 106% | viability, T/C (second compound 0.316 µM, first compound 0.00316 µM) 87.6% | viability, T/C (second compound 0.316 µM, first compound 0.01 µM) 68.7% | viability, T/C (second compound 0.316 µM, first compound 0.0316 µM) 64.6% | viability, T/C (second compound 0.316 µM, first compound 0.1 µM) 64.4% | viability, T/C (second compound 1 µM, first compound 0.000316 µM) 99.5% | viability, T/C (second compound 1 µM, first compound 0.001 µM) 113% | viability, T/C (second compound 1 µM, first compound 0.00316 µM) 97.1% | viability, T/C (second compound 1 µM, first compound 0.01 µM) 83.1% | viability, T/C (second compound 1 µM, first compound 0.0316 µM) 63.8% | viability, T/C (second compound 1 µM, first compound 0.1 µM) 62.8% | viability, T/C (second compound 3.16 µM, first compound 0.000316 µM) 100% | viability, T/C (second compound 3.16 µM, first compound 0.001 µM) 103% | viability, T/C (second compound 3.16 µM, first compound 0.00316 µM) 98% | viability, T/C (second compound 3.16 µM, first compound 0.01 µM) 88.4% | viability, T/C (second compound 3.16 µM, first compound 0.0316 µM) 66.9% | viability, T/C (second compound 3.16 µM, first compound 0.1 µM) 61.8% | viability, T/C (second compound 10 µM, first compound 0.000316 µM) 112% | viability, T/C (second compound 10 µM, first compound 0.001 µM) 94.6% | viability, T/C (second compound 10 µM, first compound 0.00316 µM) 105% | viability, T/C (second compound 10 µM, first compound 0.01 µM) 79.5% | viability, T/C (second compound 10 µM, first compound 0.0316 µM) 67.7% | viability, T/C (second compound 10 µM, first compound 0.1 µM) 71%
